Measured values: patent US11666071B2, “Compound salt of N,N-dimethylglycine and an organic acid and composition and use thereof” (GUANGZHOU INSIGHTER BIOTECHNOLOGY CO., LTD., priority 2017, dated 2023)
Structures can show the parent of a compound that is named as a salt. Marks after values point to notes of the source that are not given here.

Tests used:
[1] = tested on: Duroc×Landrace×Large White weaned pigs; test: Copper salt of N,N-dimethylglycine and fumaric acid on weaned pigs; format: in vivo, pig
Experimental: The […] utensils were disinfected before the experiment. The pigs were kept in pens in the same […] under the same breeding conditions during the experiment. […] The test was carried out for 15 days. […] The experiment data were analyzed with SPSS18 software.

[2] = High-humidity stability test (hygroscopic weight gain); format: physicochemical; details: 25° C.; for hygroscopicity / status of sample: RH 95%; for hygroscopicity / status of sample / hygroscopic weight gain, Day 5 (%): day 5; for hygroscopic weight gain, Day 5 (%) / hygroscopic weight gain, Day 10 (%): RH 95%±1%
[3] = tested on: Duroc×Landrace×Large White weaned pigs; test: Zinc salt of N,N-dimethylglycine and fumaric acid in weaned-pig feed; format: in vivo; details: 15 days
Text: The pigsty and utensils were disinfected before the experiment. The pigs were kept in pens in the same pigsty under the same breeding conditions during the experiment. […] The groups included a control group, a comparative example and experiment groups 1-6. The control group was provided with only the basic diets, the comparative example was provided with 2500 ppm of zinc oxide, and the experiment groups 1-6 were respectively provided with the basic diets together with the hybrid pellet feed additive product 7 provided by the present invention in different concentrations, as shown in Table 9. […] The experiment was carried out for 15 days. […] The experiment data were analyzed with SPSS18 software.

For `O.O.O.O.O.O=S(=O)([O-])[O-].[Cu+2]` [Copper sulfate pentahydrate, reference compound], which “ADFI” value ([1]; dose 250 ppm, 15 days) is on record?
The value was 94.67 ± 1.33 kg.

What about the “ADG” value ([1]; dose 250 ppm, 15 days) of the same molecule?
The value was 46.38 ± 1.01 kg.

What about the FCR ([1]; dose 250 ppm, 15 days) of the same molecule?
Its FCR is 2.042 ± 0.021^b.

What does the source list for `CN(C)CC(=O)O.Cl` [Sample 1, N,N-dimethylglycine hydrochloride, reference compound]?
hygroscopicity / status of sample [2]: very high hygroscopicity; hygroscopic weight gain, Day 5 (%) [2]: 79.86 ± 0.94%; hygroscopic weight gain, Day 10 (%) [2]: 80.69 ± 0.59%

What does the source list for `CN(C)CC(=O)[O-].[Na+]` [Sample 2, Sodium N,N-dimethylglycinate, reference compound]?
hygroscopicity / status of sample [2]: very high hygroscopicity; hygroscopic weight gain, Day 5 (%) [2]: 49.09 ± 1.14%; hygroscopic weight gain, Day 10 (%) [2]: 52.44 ± 0.48%

With `CN(C)CC(=O)O` [Sample 6, Calcium salt of N,N-dimethylglycine and sulfuric acid] as the molecule, how does the “hygroscopicity / status of sample” value [2] read?
The value was “water-like status”.

What about the “hygroscopic weight gain, Day 5 (%)” value [2] of the same molecule?
The value was 61.72 ± 0.41%.

And the “hygroscopic weight gain, Day 10 (%)” value [2]?
The value was 60.58 ± 0.21%.

What does the source list for `CN(C)CC(=O)[O-].O=C([O-])c1ccccc1.[Cu+2]` [Sample 11]?
hygroscopic weight gain, Day 5 (%) [2]: 2.41 ± 0.07%; hygroscopic weight gain, Day 10 (%) [2]: 2.81 ± 0.10%

For `[O]=[Zn]` [Zinc oxide, reference compound], which FCR ([3]; dose 2500 ppm) is on record?
Its FCR is 1.808 ± 0.018.

What does the source list for “Calcium N,N-dimethylglycinate [Sample 3, reference compound]”?
hygroscopicity / status of sample [2]: very high hygroscopicity; hygroscopic weight gain, Day 5 (%) [2]: 38.40 ± 0.22%; hygroscopic weight gain, Day 10 (%) [2]: 41.83 ± 0.35%

With “Calcium salt of N,N-dimethylglycine and fumaric acid [Sample 8]” as the molecule, how does the “hygroscopic weight gain, Day 5 (%)” value [2] read?
Its value is 2.95 ± 0.22%.

And the “hygroscopic weight gain, Day 10 (%)” value [2]?
Its value is 3.25 ± 0.12%.

Which “hygroscopic weight gain, Day 5 (%)” value [2] does the source give for “Calcium salt of N,N-dimethylglycine and p-methylbenzenesulfonic acid [Sample 10]” here?
Its value is 2.84 ± 0.23%.

And the “hygroscopic weight gain, Day 10 (%)” value [2]?
Its value is 3.01 ± 0.11%.

What does the source list for “Calcium salt of N,N-dimethylglycine and tetradecanoic acid [Sample 9]”?
hygroscopic weight gain, Day 5 (%) [2]: 2.11 ± 0.04%; hygroscopic weight gain, Day 10 (%) [2]: 2.75 ± 0.32%

For “Copper salt of N,N-dimethylglycine and fumaric acid [Sample 14]”, which “hygroscopic weight gain, Day 5 (%)” value [2] is on record?
Its value is 2.56 ± 0.11%.

What about the “hygroscopic weight gain, Day 10 (%)” value [2] of the same molecule?
Its value is 2.81 ± 0.06%.

And the “effect on the average daily weight gain of weaned pigs” value ([1]; 30-100 ppm, 15 days)?
Its value is “no significant effect”.

What about the “effect on the feed intake of weaned pigs” value ([1]; 30-100 ppm, 15 days) of the same molecule?
The value was “no significant effect”.

What about the “reduction of feed conversion ratio compared with the control group” value ([1]; dose 100 ppm) of the same molecule?
Its value is 8.61%.

What about the “dose at which feed conversion ratio is significantly reduced” value ([1]; weaned pigs, 15 days) of the same molecule?
The value was 30-100 ppm.

With “Zinc salt of N,N-dimethylglycine and fumaric acid [Sample 13]” as the molecule, how does the “hygroscopic weight gain, Day 5 (%)” value [2] read?
The value was 2.26 ± 0.09%.

And the “hygroscopic weight gain, Day 10 (%)” value [2]?
The value was 2.76 ± 0.23%.

What about the “effect on the feed intake of weaned pigs” value ([3]; 55-520 ppm) of the same molecule?
Its value is “no significant effect”.

And the “dose at which reduction of feed conversion ratio is significant and equivalent to high-dose zinc oxide” value ([3]; weaned pigs)?
The value was “higher than 390 ppm”.

And the “dose that significantly increases average daily weight gain to the level of 2500 ppm zinc oxide” value ([3]; weaned pigs)?
The value was “about 260 ppm”.
